Laboratory results: US12257239B1, “Cytotoxic treatment of cancer cells” (IMAM MOHAMMAD IBN SAUD ISLAMIC UNIVERSITY, priority 2024, dated 2025)
≈ marks a conversion by molar mass, not a printed value.

Experiments:
[1] = test system: colorectal carcinoma (HCT116); assay: Growth inhibition of cancerous cells, HCT116; type: cell-based; settings: Homo sapiens, HCT-116; HCT116, 100 μg/mL; read-out: growth inhibition percentage
Protocol: (§1) The compound of Formula I was tested for its antitumor activity against various cancer cell lines, in vitro, in non-small cell lung cancer (A549), colorectal carcinoma (HCT116), prostate cancer (PC3), pharynx squamous carcinoma (FaDu), triple-negative breast cancer (MDA-MB-468), cervical cancer (HeLa), and human oral epithelial normal cell line (OEC).

prostate cancer (PC3) = assay: Growth inhibition of cancerous cells, PC3; type: cell-based; settings: Homo sapiens; PC3, 100 μg/mL; read-out: growth inhibition percentage
Protocol: as §1

[2] = test system: human oral epithelial normal cell line (OEC); settings: 100 μg/mL
Protocol: as §1

[3] = test system: human non-small cell lung cancer (A549); assay: Growth inhibition of cancerous cells, A549; type: cell-based; settings: for IC50: A549
Protocol: as §1

[4] = test system: triple-negative breast cancer (MDA-MB-468); assay: Growth inhibition of cancerous cells, MDA-MB-468; type: cell-based; settings: Homo sapiens; for IC50: MDA-MB-468
Protocol: as §1

cervical cancer (HeLa) = assay: Growth inhibition of cancerous cells, HeLa; type: cell-based; settings: Homo sapiens
Protocol: as §1

[5] = test system: pharynx squamous carcinoma (FaDu); assay: Growth inhibition of cancerous cells, FaDu; type: cell-based; settings: Homo sapiens
Protocol: as §1

[6] = 100 μg/mL, read-out: growth inhibition percentage

SMILES	inhibition at 100 µg/mL [1]	inhibition at 100 µg/mL (prostate cancer (PC3))	growth inhibition percentage [2]	IC50 [3]	inhibition at 100 µg/mL ([3]; A549, 100 μg/mL, read-out: growth inhibition percentage)	IC50 [4]	inhibition at 100 µg/mL ([4]; MDA-MB-468, 100 μg/mL, read-out: growth inhibition percentage)	IC50 (cervical cancer (HeLa))	inhibition at 100 µg/mL (cervical cancer (HeLa); [6])	IC50 [5]	inhibition at 100 µg/mL [5, 6]
O=C1S/C(=C\c2cc([N+](=O)[O-])ccc2O)C(=O)N1CCN1C(=O)c2ccccc2C1=O [Formula I, 3-(2-(1,3-dioxoisoindolin-2-yl)ethyl)-5-(2-hydroxy-5-nitrobenzylidene)thiazolidine-2,4-dione]	85.7%	83.8%	48.89%	6 µg/mL	78%	5.5 µg/mL	90.8%	5.03 µg/mL	70.8%	5.03 µg/mL	89.1%
COc1cccc2c1C(=O)c1c(O)c3c(c(O)c1C2=O)C[C@@](O)(C(=O)CO)C[C@@H]3O[C@H]1C[C@H](N)[C@H](O)[C@H](C)O1 [doxorubicin, reference compound]				7.63 µg/mL (≈ 14 µM)		7.76 µg/mL (≈ 14.3 µM)		4.83 µg/mL (≈ 8.89 µM)		13.2 µg/mL (≈ 24.2 µM)	
